According to US20230174485A1, “LIPOXYGENASE INHIBITORS” (SRI International, priority 2020, published 2023):
Several values for one entry are separate records, joined by “and”; a condition that tells them apart may be missing. Equal entries are not always repeated. Structures can show the parent of a compound that is named as a salt. Where two headings read alike, the source gives them in different places.

Assays:
Format in all cases: biochemical
[1] = target: T1, recombinant 12-LOX enzyme (Homo sapiens, UniProt P18054); experiment: 12-LOX fluorescent assay; conditions: several values in one cell = repeat determinations; read-out: IC50 (μM) values for in vitro lipoxygenase inhibition, 12-LOX
T1 sequence (P18054 1-663): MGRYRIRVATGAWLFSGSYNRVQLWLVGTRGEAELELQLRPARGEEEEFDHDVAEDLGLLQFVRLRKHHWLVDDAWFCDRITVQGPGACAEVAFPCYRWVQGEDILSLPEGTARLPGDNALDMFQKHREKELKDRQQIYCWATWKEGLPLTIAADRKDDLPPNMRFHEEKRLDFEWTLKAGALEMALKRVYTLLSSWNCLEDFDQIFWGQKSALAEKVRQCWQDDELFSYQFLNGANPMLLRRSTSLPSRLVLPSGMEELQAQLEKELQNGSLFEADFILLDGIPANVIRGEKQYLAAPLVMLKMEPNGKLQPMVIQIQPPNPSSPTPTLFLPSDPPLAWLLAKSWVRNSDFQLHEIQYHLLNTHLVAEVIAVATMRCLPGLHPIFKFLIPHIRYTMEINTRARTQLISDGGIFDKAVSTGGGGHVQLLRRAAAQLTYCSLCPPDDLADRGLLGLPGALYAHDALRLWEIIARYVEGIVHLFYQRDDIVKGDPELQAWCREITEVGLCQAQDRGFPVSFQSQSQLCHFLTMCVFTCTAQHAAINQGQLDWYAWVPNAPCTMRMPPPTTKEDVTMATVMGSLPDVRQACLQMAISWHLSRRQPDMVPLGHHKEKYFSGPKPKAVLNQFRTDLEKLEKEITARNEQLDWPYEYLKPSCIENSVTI
Procedure: (§1) 12-LOX/15-LOX Fluorescent Assay
(§2) The enzyme assay (100 ul) contained 50 mM Tris, pH 7.5, 0.05% Tween-20, 20 μM AA/LA, 1 μM DHR123, and 100 nM recombinant 12-LOX enzyme/50 nM recombinant 15-LOX enzyme. Inhibitors (dissolved in DMSO) were plated at 1 μL into 96-well assay microplates followed by a 40 μL addition of a solution containing 12-LOX/15-LOX enzyme. Enzyme was pre-incubated with compounds for 15 mins. The assay was initiated by the addition of a 40 μL substrate solution containing AA/LA, and 20 μL addition of a solution containing DHR123. Enzymatic reaction proceeded for 30 min with kinetic reading at 500 nm excitation & 536 nm emission in SpectraMax Paradigm (MolecularDevice). Percent inhibition was calculated for each compound dose for IC50 curve fitting using 4 Parameter Logistic Model or Sigmoidal Dose-Response Model.

[2] = target: T2, recombinant 15-LOX enzyme (Homo sapiens, UniProt P16050); experiment: 15-LOX fluorescent assay; conditions: several values in one cell = repeat determinations
T2 sequence (P16050 1-662): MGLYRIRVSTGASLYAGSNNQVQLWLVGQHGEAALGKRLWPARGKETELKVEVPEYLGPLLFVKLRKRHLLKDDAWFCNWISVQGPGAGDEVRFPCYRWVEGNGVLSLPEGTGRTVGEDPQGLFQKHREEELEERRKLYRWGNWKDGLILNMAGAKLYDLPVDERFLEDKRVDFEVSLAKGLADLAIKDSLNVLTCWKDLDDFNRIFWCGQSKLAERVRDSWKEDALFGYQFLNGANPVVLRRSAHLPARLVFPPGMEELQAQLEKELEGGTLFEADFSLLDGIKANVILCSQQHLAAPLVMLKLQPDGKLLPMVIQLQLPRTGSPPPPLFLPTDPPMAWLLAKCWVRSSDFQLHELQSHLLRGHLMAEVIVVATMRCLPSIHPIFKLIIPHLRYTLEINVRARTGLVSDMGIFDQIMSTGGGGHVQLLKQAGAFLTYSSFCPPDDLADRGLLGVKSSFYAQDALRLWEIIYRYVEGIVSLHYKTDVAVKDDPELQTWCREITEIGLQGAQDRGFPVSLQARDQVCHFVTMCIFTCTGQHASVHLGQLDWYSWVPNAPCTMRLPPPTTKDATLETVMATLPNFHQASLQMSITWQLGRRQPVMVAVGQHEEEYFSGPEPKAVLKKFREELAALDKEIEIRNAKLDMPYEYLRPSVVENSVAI
Procedure: as §1, §2

recombinant 5-LOX = target: T3, recombinant 5-LOX (Homo sapiens, UniProt P09917); experiment: 5-LOX fluorescent assay; conditions: several values in one cell = repeat determinations; read-out: IC50 (μM) values for in vitro lipoxygenase inhibition, 5-LOX
T3 sequence (P09917 1-674): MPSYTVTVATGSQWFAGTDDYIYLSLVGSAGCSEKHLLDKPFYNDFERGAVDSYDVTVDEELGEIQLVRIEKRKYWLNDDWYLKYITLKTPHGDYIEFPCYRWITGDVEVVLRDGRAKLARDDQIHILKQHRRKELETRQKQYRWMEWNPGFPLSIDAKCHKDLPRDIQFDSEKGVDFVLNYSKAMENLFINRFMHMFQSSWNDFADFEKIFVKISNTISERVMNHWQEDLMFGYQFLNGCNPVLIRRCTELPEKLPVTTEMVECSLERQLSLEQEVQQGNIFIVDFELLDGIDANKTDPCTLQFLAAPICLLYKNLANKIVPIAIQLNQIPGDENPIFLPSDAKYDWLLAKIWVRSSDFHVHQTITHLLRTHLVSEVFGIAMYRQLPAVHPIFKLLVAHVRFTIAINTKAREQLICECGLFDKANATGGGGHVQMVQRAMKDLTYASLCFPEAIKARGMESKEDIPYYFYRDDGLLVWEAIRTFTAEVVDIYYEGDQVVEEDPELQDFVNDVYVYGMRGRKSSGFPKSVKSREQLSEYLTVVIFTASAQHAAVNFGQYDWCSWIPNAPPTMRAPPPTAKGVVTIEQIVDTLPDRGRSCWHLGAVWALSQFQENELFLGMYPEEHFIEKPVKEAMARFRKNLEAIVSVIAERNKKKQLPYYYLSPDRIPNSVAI
Procedure: 5-LOX FI assay Fluorescent Assay
The enzyme assay (100 μL) contained 50 mM Tris, pH 7.5, 0.1 mM EDTA, 0.3 mM CaCl2, 20 μM AA, 100 μM ATP, 1 μM DHR123, and recombinant 5-LOX cell lysate (0.5 μL/100 μL). Inhibitors (dissolved in DMSO) were plated at 1 μL into 96-well assay microplates followed by a 40 μL addition of a solution containing 5-LOX enzyme. Enzyme was pre-incubated with compounds for 15 mins. The assay was initiated by the addition of a 40 μL substrate solution containing AA and ATP, and 20 μL addition of a solution containing DHR123. Enzymatic reaction proceeded for 30 min with kinetic reading at 500 nm excitation & 536 nm emission in SpectraMax Paradigm (MolecularDevice). Percent inhibition was calculated for each compound dose for IC50 curve fitting using 4 Parameter Logistic Model or Sigmoidal Dose-Response Model.

[3] = read-out: IC50 (μM) values for in vitro lipoxygenase inhibition, 15-LOX
[4] = IC50 (μM) values for in vitro lipoxygenase inhibition, 15-LOX

Row | IC50 [1] | IC50 [2, 3] | IC50 (recombinant 5-LOX) | IC50 [2, 4] | Structure (SMILES)
1 | 0.19 µM and 0.24 µM | 0.94 µM and 1.68 µM | 0.53 µM and 0.42 µM | – | c1ccc2c(c1)[nH]c1cc3c(ccn3CCn3cncn3)cc12 [SS20308-0062-01, 1-(2-(1H-1,2,4-triazol-1-yl)ethyl)-1,9-dihydropyrrolo[2,3-b]carbazole]
2 | 0.46 µM and 0.56 µM | – | 0.53 µM and 0.69 µM | 0.29 µM and 0.9 µM | CN(C)CCOc1c2c(cc3[nH]c4ccccc4c13)[nH]c1ccccc12 [SS20308-0063-01, 2-(5,7-dihydroindolo[2,3-b]carbazol-12-yloxy)-N,N-dimethylethanamine]
3 | 0.02 µM and 0.06 µM | 0.03 µM | 0.01 µM and 0.04 µM | – | CN(C)CCOc1c2[nH]c3ccccc3c2cc2[nH]c3ccccc3c12 [SS20308-0065-01, 2-(5,11-dihydroindolo[3,2-b]carbazol-6-yloxy)-N,N-dimethylethanamine]
4 | 0.77 µM | – | 5.63 µM | 1.76 µM | CN(C)CCCc1c(O)ccc2c1[nH]c1ccc(F)cc12 [SS20308-0068-01, 1-(3-(dimethylamino)propyl)-6-fluoro-9H-carbazol-2-ol]
5 | 7.93 µM | 8.34 µM | 14.8 µM | – | CN(C)CCOc1c(N)cc(Cl)c2c1[nH]c1ccc(F)cc12 [SS20308-0069-01, 4-chloro-1-(2-(dimethylamino)ethoxy)-6-fluoro-9H-carbazol-2-amine]
6 | 6.32 µM | 4.53 µM | 9.17 µM | – | CN(C)CCOc1cc2c3ncccc3[nH]c2c2c1[nH]c1cccnc12 [SS20308-0070-01]
7 | 49.2 µM | – | 14.4 µM | 26.1 µM | CN(C)CCOc1c(-c2ccccc2N)ccc2c1[nH]c1ccccc12 [SS20308-0073-01, 2-(1-(2-(dimethylamino)ethoxy)-9H-carbazol-2-yl)aniline dihydrochloride]
8 | 3.59 µM | 5.7 µM | 4.54 µM | – | CN(C)CCOc1cc2c(cc1-c1ccccc1[N+](=O)[O-])[nH]c1ccccc12 [SS20308-0076-01, N,N-dimethyl-2-(2-(2-nitrophenyl)-9H-carbazol-3-yloxy)ethanamine]
9 | 2.32 µM | 2.15 µM | 2.66 µM | – | CN(C)CCOc1c(-c2ccccc2[N+](=O)[O-])ccc2c1[nH]c1ccccc12 [SS20308-0077-01, N,N-dimethyl-2-(2-(2-nitrophenyl)-9H-carbazol-1-yloxy)ethanamine]
10 | 5.42 µM | – | 6.79 µM | 3.36 µM | Fc1ccc2[nH]c3c(OCCn4cncn4)cc(Oc4ccccc4)cc3c2c1 [SS20308-0084-01, 1-(2-(1H-1,2,4-triazol-1-yl)ethoxy)-6-fluoro-3-phenoxy-9H-carbazole]
11 | 0.32 µM and 0.92 µM | – | 0.57 µM and 1.6 µM | 1.19 µM and 2.23 µM | c1ccc(-c2c(NCCn3cncn3)ccc3c2[nH]c2ccccc23)cc1 [SS20308-0085-01, N-(2-(1H-1,2,4-triazol-1-yl)ethyl)-1-phenyl-9H-carbazol-2-amine]
12 | 0.87 µM | 0.42 µM | 0.62 µM | – | CN(C)CCOc1c(CNc2ccccc2)ccc2c1[nH]c1ccccc12 [SS20308-0086-01, N-((1-(2-(dimethylamino)ethoxy)-9H-carbazol-2-yl)methyl)aniline]
13 | 0.43 µM | 0.69 µM | 0.47 µM | – | CN(C)CCCOc1cccc2c1-c1[nH]c3ccccc3c1CS2 [SS20308-0090-01, 3-(6,11-dihydrothiochromeno[4,3-b]indol-1-yloxy)-N,N-dimethylpropan-1-amine]
14 | 1.69 µM | 2.37 µM | 1.46 µM | – | CN(C)CCOc1ccc(Cl)c2c1-c1[nH]c3ccc(F)cc3c1CS2 [SS20308-0093-01, 2-(4-chloro-8-fluoro-6,11-dihydrothiochromeno[4,3-b]indol-1-yloxy)-N,N-dimethylethanamine]
15 | > 100 µM | > 100 µM | > 100 µM | – | Cc1c2[nH]c3ccccc3c2c(CCCN(C)C)c2[nH]c3ccccc3c12 [SS20308-0100-01, N,N-dimethyl-3-(12-methyl-5,11-dihydroindolo[3,2-b]carbazol-6-yl)propan-1-amine]
16 | 0.08 µM and 0.1 µM and 0.12 µM | 40 nM (2×) and 70 nM | 0.07 µM and 0.05 µM and 0.04 µM | – | CN(C)CCOc1c2[nH]c3ccc(F)cc3c2c(F)c2[nH]c3ccc(F)cc3c12 [SS20308-0101-01, N,N-dimethyl-2-(2,8,12-trifluoro-5,11-dihydroindolo[3,2-b]carbazol-6-yloxy) ethanamine]
17 | 2.23 µM | 0.06 µM | 0.02 µM | – | CN(C)CCOc1cc2c3ccccc3[nH]c2c2[nH]c3ccccc3c12 [SS20308-0103-01, 2-(11,12-dihydroindolo[2,3-a]carbazol-5-yloxy)-N,N-dimethylethanamine]
18 | 44.9 µM | 0.09 µM | 20.3 µM | – | c1ccc(-c2cc(NCCCn3cncn3)cc3c2[nH]c2ccccc23)cc1 [SS20308-0111-01, N-(3-(1H-1,2,4-triazol-1-yl)propyl)-1-phenyl-9H-carbazol-3-amine]
19 | > 100 µM | > 100 µM | > 100 µM | – | Cc1c2[nH]c3ccccc3c2cc2[nH]c3ccccc3c12 [SS20308-0112-01, 6-methyl-5,11-dihydroindolo[3,2-b]carbazole]
20 | 24.2 µM | – | 23.2 µM | 26.9 µM | COc1ccc2c([nH]c3ccc(F)cc32)c1CCCN(C)C [SS20308-0118-01, 3-(6-fluoro-2-methoxy-9H-carbazol-1-yl)-N,N-dimethylpropan-1-amine]
